Laboratory results published in PubChem BioAssay (NCI).
Several values for one entry are separate records, joined by “and”; a condition that tells them apart may be missing. Equal entries are not always repeated.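 Tested at 5 concentrations; 48 h exposure; 96-well plates; endpoints linearly interpolated, else capped at highest concentration. Abbreviation: GI50, concentration required for 50% inhibition of growth. TGI: concentration producing complete growth inhibition.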

Legend:
Assay in all cases: NCI anticancer screen, dose series, 48 h
[1] = test system: HOP-62 NSCLC
[2] = test system: HCT-15 colon
[3] = test system: UO-31 renal
[4] = test system: SNB-19 CNS
[5] = test system: NCI-H522 lung
[6] = test system: NCI/ADR-RES ovarian
[7] = test system: HL-60(TB) leukemia
[8] = test system: TK-10 renal
[9] = test system: HT29 colon
[10] = test system: OVCAR-5 ovarian

| Structure (SMILES) | GI50 [1] | TGI [1] | GI50 [2] | TGI [2] [µM] | GI50 [3] | TGI [3] | GI50 [4] | TGI [4] [µM] | GI50 [5] | TGI [5] | GI50 [6] | TGI [6] [µM] | GI50 [7] | TGI [7] [µM] | GI50 [8] | TGI [8] | GI50 [9] | TGI [9] [µM] | GI50 [10] | TGI [10] [µM] |
| --- | --- | --- | --- | --- | --- | --- | --- | --- | --- | --- | --- | --- | --- | --- | --- | --- | --- | --- | --- | --- |
| S=C(Nc1ccc(-c2nc3ccccc3s2)cc1)Nc1ccccn1 | 44.4 µM | > 100 µM | 27.4 µM | > 71.6 | 19.6 µM | > 68.9 µM | 36.1 µM | > 100 | 24.7 µM | > 61.3 µM | 24.6 µM | 66.6 | 30.7 µM | > 100 | 24.1 µM | 70.2 µM | 28.3 µM | > 80.4 | > 52.8 µM | > 81.4 |
| COc1c(Nc2ncc(Cl)c(N[C@@H]3[C@H]4C=CC(C4)[C@@H]3C(N)=O)n2)ccc2c1CC[C@@H](N1CCOCC1)CC2 | 2.08 µM | 15 µM | 3.28 µM | 15.3 | 2.07 µM | 10.7 µM | 9.37 µM | 29.5 | 5.47 µM | 15 µM | 4.58 µM | 24.4 | 4.86 µM | 20.6 | 1.7 µM | 15.9 µM | 2.68 µM | 10.6 | 1.4 µM | 17.8 |
| CCNC(=O)Nc1ccc(-c2nc3c(c(N4CCOC[C@@H]4C)n2)CCN(C2COC2)C3)cc1 | 0.443 µM and 0.391 µM | 22 µM and > 7.45 µM | 0.638 µM and 0.45 µM | > 100 | 0.101 µM and 0.0801 µM | 2.39 µM and 1.45 µM | 0.303 µM and 0.45 µM | > 21.6 | 0.181 µM and 0.159 µM | > 24.2 µM and 6.18 µM | 2.87 µM and 1.78 µM | > 100 | 7.44 µM and 4.61 µM | > 100 | 0.195 µM and 0.128 µM | 3.86 µM and 3.13 µM | 0.587 µM and 0.409 µM | > 100 | 0.302 µM and 0.384 µM | > 37.1 |
| CCc1ccc(/C(C#N)=C/C=C/c2ccccc2)cc1 | 2.83 µM | > 100 µM | 0.897 µM | > 83.9 | 19.2 µM | > 100 µM | 6.88 µM | > 100 | 2.04 µM | 14.7 µM | 2.21 µM | > 100 | 2.54 µM | > 62.9 | 5.79 µM | > 100 µM | 1.38 µM | 9.41 | 7.06 µM | > 100 |
| NC(=O)Cc1ccccc1Oc1nccc(-c2c(-c3ccc(F)cc3)ncn2C2CCNCC2)n1 | > 25 µM | > 25 µM | > 25 µM | > 25 | > 25 µM | > 25 µM | > 25 µM | > 25 | > 25 µM | > 25 µM | > 25 µM | > 25 | > 25 µM | > 25 | > 25 µM | > 25 µM | > 25 µM | > 25 | > 25 µM | > 25 |
| Cc1oncc1C(=O)Nc1ccc(C(F)(F)F)cc1 | > 100 µM | > 100 µM | 14.1 µM | > 100 | 12.6 µM | > 100 µM | > 100 µM | > 100 | 33.6 µM | > 100 µM | 45.1 µM | > 100 | 24.5 µM | > 100 | > 100 µM | > 100 µM | 66.3 µM | > 100 | > 100 µM | > 100 |
| O=C1OCC2=C1C(c1cccc([N+](=O)[O-])c1)c1cc3c(cc1N2CCO)CCC3 (centres undefined) | 0.199 µM | > 50 µM | 0.121 µM | > 50 | 0.269 µM | > 34.3 µM | 0.2 µM | > 50 | 0.0431 µM | 6.3 µM | 0.146 µM | > 11.3 | 0.137 µM | 0.373 | 6.42 µM | > 50 µM | 0.176 µM | 21.6 | 0.231 µM | > 50 |
| COc1cc2c3c(n(CCCN=[N+]=[N-])c(=O)c2cc1OC)-c1ccc(N)cc1C3=O | 0.118 µM | 0.666 µM | 0.378 µM | 2.46 | 0.146 µM | 0.803 µM | 0.125 µM | – | 0.133 µM | 0.983 µM | 0.316 µM | 1.41 | 0.102 µM | 1.02 | 0.71 µM | 3.93 µM | 0.133 µM | 0.929 | 0.633 µM | 1.33 |
| O=C(Nc1cccnc1)c1cccs1 | 42.2 µM | > 100 µM | 0.658 µM | > 100 | > 100 µM | > 100 µM | 9.56 µM | > 100 | > 100 µM | > 100 µM | 43.8 µM | > 100 | 48.1 µM | > 100 | > 100 µM | > 100 µM | 2.39 µM | > 100 | 45.4 µM | > 100 |
